Laboratory results reported in PubChem BioAssay (NCI).
Values joined by “and” are separate entries in the source; they are usually repeats but may differ in a detail not shown here. Identical values can stand only once.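 Following 48 hours of exposure in 96-well plates, responses at five concentrations were used to interpolate endpoints linearly. GI50 is the concentration that inhibits growth by half. TGI denotes the concentration required for complete inhibition of growth.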

How the values were obtained:
Experiment in all cases: NCI-60 cell line screen, 48 h
[1] = system: LOX IMVI melanoma
[2] = system: NCI-H522 lung
[3] = system: HL-60(TB) leukemia
[4] = system: A498 renal
[5] = system: OVCAR-5 ovarian
[6] = system: NCI-H226 lung
[7] = system: MOLT-4 leukemia
[8] = system: UO-31 renal
[9] = system: 786-0 renal
[10] = system: MDA-MB-231 breast

Structure (SMILES)	GI50 [1] [µM]	TGI [1] [µM]	GI50 [2] [µM]	TGI [2] [µM]	GI50 [3] [µM]	TGI [3]	GI50 [4] [µM]	TGI [4] [µM]	GI50 [5]	TGI [5] [µM]	GI50 [6] [µM]	TGI [6] [µM]	GI50 [7] [µM]	TGI [7]	GI50 [8] [µM]	TGI [8]	GI50 [9] [µM]	TGI [9]	GI50 [10] [µM]	TGI [10] [µM]
CC(=O)[CH-]C(=O)c1ccccc1.CC(=O)[CH-]C(=O)c1ccccc1.[O-]c1ccc(O)cc1.[O-]c1ccc(O)cc1.[Ti+4]	14.3	27.3	1.97	4.37	3.71	30.6 µM	18.4	37.3	35.1 µM	91.4	15	34.6	4.18	> 100 µM	23.7	49.5 µM	13.2	26 µM		
c1ccc2c(c1)[Se]c1ccccc1[Se]2		> 100		> 100		> 100 µM		> 100		> 100		> 100		> 100 µM		> 100 µM		> 100 µM		
CC(=O)OC1C(O)COC(Oc2c(C)c3c4c(c2O)[C@@H](C)CC[C@@H]4[C@@H](C)C[C@H]3C=C(C)C)C1O (some centres undefined)	18	35.4	30.9	> 100			16.6	32.7	23.2 µM	47.9	24.5	64.8	4.89	28.5 µM	30	> 100 µM	27	> 100 µM		
COc1cc(C(C)c2cc3c(cc2OCCOCCOc2cc4c(cc2C(C)c2cc(OC)c(OC)c(OC)c2)OCO4)OCO3)cc(OC)c1OC (centres undefined)	> 100	> 100	> 100	> 100	> 100	> 100 µM	> 100	> 100	> 100 µM	> 100		> 10	> 100	> 100 µM	> 10	> 100 µM	> 100	> 100 µM		
CCC(=O)[O-].CCC(=O)[O-].N.N.N.N.[Co+3].[O-][Cl+3]([O-])([O-])[O-]	> 100	> 100	> 100	> 100	> 100	> 100 µM	> 100	> 100	> 100 µM	> 100			> 100	> 100 µM	> 100	> 100 µM	> 100	> 100 µM		
NC(N)=NS(=O)(=O)c1ccc(NC(=O)c2ccc(Cl)c3c(Nc4ccc(S(=O)(=O)N=C(N)N)cc4)c4ccccc4nc23)cc1		> 100		> 100		> 100 µM		> 100		> 100				> 100 µM		> 100 µM		> 100 µM		
CC(=O)N1C(=O)C(=O)c2cc(Cl)ccc21		> 100				> 100 µM		> 100		> 100		> 100		> 100 µM		> 100 µM		> 100 µM		
COC(=O)c1c(C(=O)OC)c(C(=O)OC)c(C(=O)OC)c1C(=O)OC		> 100		> 100		> 100 µM				> 100				> 100 µM		> 100 µM		> 100 µM		
COc1cccc(C(=O)O)c1Cc1cccc2ccccc12		> 100		> 100		> 100 µM				> 100		> 100		> 100 µM		> 100 µM		> 100 µM		
CP(=O)(CCSc1ccccc1)c1ccccc1 (centres undefined)		> 100				> 100 µM		> 100				> 100		> 100 µM		> 100 µM		> 100 µM		
O=c1c2ccccc2c(C=NCCNCCO)c2oc3ccccc3n12	5.83	18.4	16.7	37.7	4.63	20.7 µM			15.7 µM	29.1	11.9	29	1.73	11.7 µM	9.58	22.5 µM	12.4	24.9 µM	11.5	24.4
NCC(=O)OCN1C(=O)C2C3C=CC(C2C1=O)C1C2C(=O)N(COC(=O)CN)C(=O)C2C31 (centres undefined)		37.9		25.9		28.5 µM and 37.4 µM		> 100	42.1 µM and 90 µM	> 100		> 100		69.8 µM and 42.2 µM		97.7 µM and > 100 µM		40.7 µM and 36.8 µM		
C=CC1(C)/C(=N\O)C(C)(CC)C(=O)N1O (centres undefined)		> 100		> 100		> 100 µM		> 100		> 100				> 100 µM		> 100 µM		> 100 µM		
O=c1c2cc(-c3ccccc3)sc2nc2sc(-c3ccccc3)nn12		> 100		> 100		> 100 µM		> 100		> 100		> 100		> 100 µM		> 100 µM		> 100 µM		
N#CC(C(=N/NC(N)=S)/C(=N\NC(N)=S)C(C#N)c1ccccc1)c1ccccc1 (centres undefined)		> 10		> 10		> 10 µM		> 10		> 10		> 10		> 10 µM		> 10 µM		> 10 µM		
CCCN(CCC)c1ccc(C=O)c(OC)c1	25.8	> 100	18.1	67.3	12.4	38 µM	1.37	7.79	19.5 µM	> 100	28.5	> 100	11.9	40.4 µM	16.5	> 100 µM	29.4	> 100 µM		
CC[O+]=c1cccc2ssnc1-2		> 100		82.6		> 100 µM		> 100		> 100		> 100		> 100 µM		> 100 µM		> 100 µM		
COc1cc([N+](=O)[O-])c(S(=O)(=O)O)cc1-n1nc(-c2ccccc2)n[n+]1-c1cc(S(=O)(=O)[O-])c([N+](=O)[O-])cc1OC		> 100		> 100		> 100 µM				> 100		> 100		> 100 µM		> 100 µM		> 100 µM		> 100
